Data from article PMC4393083, “Antiviral Activity and Possible Mechanism of Action of Constituents Identified in Paeonia lactiflora Root toward Human Rhinoviruses” (PLoS ONE, 2015).

Key:
sICAM-1 = assay: Soluble ICAM-1 ELISA in MRC5 culture supernatants; format: cell-based, human; settings: HRV-2 or HRV-4 infected MRC5 cultures, 100 μg/mL PA, 20 μg/mL PGG
Procedure: The expressions of ICAM-1 and LDLR were examined using real-time qRT-PCR and Western blot. Furthermore, concentrations of soluble ICAM-1 (sICAM-1) in cell-free culture supernatants 2 days after treatment were measured using a sICAM-1 ELISA Kit (Pierce Biotechnology, Rockford, IL) according to the manufacturer’s instructions. The sensitivities of the assays were 0.3 ng/mL. The concentrations of ICAM-1 in the test samples were determined from OD values using standard curve of each assay.

IL-6 = IL-6 ELISA in MRC5 supernatants; format: cell-based, human; settings: for IL-6 concentrations in infected cultures: HRV-2 or HRV-4 infected MRC5 supernatants, 2 days, 100 μg/mL PA, 20 μg/mL PGG
Procedure: The concentrations of IL-6, IL-8, and TNF in cell-free culture supernatants 2 days after treatment were measured using specific ELISA. OptEIA IL-6, IL-8, and TNF ELISA kits (BD Biosciences, San Diego, CA) were used for the assays. The sensitivities of these ELISA assays were 2.2, 0.8, and 2.0 pg/mL, respectively. The concentrations of IL-6, IL-8, and TNF in the test samples were determined from OD values using standard curve of each assay.

COc1ccc(C(C)=O)c(O)c1 [PA, paeonol]
sICAM-1 levels in supernatants vs cultures without treatment (sICAM-1): significantly lower
IL-6 concentrations in infected cultures (IL-6): reduced
IL-6 concentrations in mock cultures vs mock cultures without treatment (IL-6; noninfected MRC5 supernatants): higher

O=C(OC[C@H]1O[C@@H](OC(=O)c2cc(O)c(O)c(O)c2)[C@H](OC(=O)c2cc(O)c(O)c(O)c2)[C@@H](OC(=O)c2cc(O)c(O)c(O)c2)[C@@H]1OC(=O)c1cc(O)c(O)c(O)c1)c1cc(O)c(O)c(O)c1 [PGG, 1,2,3,4,6-penta-O-galloyl-β-D-glucopyranose]
sICAM-1 levels in supernatants vs cultures without treatment (sICAM-1): significantly lower
IL-6 concentrations in infected cultures (IL-6): reduced
